For assay [1], the system named is Human pulmonary EC. In words: TER, HABP2/C1INH regulation of EC barrier function (Examples 3 and 6). It is filed as cell-based. Particulars: 100 nM HA or 10 μg/ml purified HABP2. The protocol:
Measurement of transendothelial monolayer electrical resistance (TER). EC were grown to confluence in polycarbonate wells containing evaporated gold microelectrodes, and TER measurements performed using an electrical cell-substrate impedance sensing system obtained from Applied Biophysics (Troy, N.Y.) as previously described in detail (Garcia et al. 2001). TER values from each microelectrode were pooled at discrete time points and plotted versus time as the mean±S.E.
Determination of EC barrier function. Human pulmonary endothelial cells were grown to confluence in polycarbonate wells containing evaporated gold microelectrodes (surface area, 10-3 cm^2) in series with a large gold counter electrode (1 cm^2) connected to a phase-sensitive lock-in amplifier as described previously. Measurements of transendothelial electrical resistance (TER) were performed using an electrical cell-substrate impedance sensing system (ECIS) (Applied BioPhysics Inc.). Briefly, current was applied across the electrodes by a 4,000-Hz AC voltage source with amplitude of 1 V in series with a 1 MS/resistance to approximate a constant current source (˜1 μA). The in-phase and out-of-phase voltages between the electrodes were monitored in real time with the lock-in amplifier and subsequently converted to scalar measurements of transendothelial impedance, of which resistance was the primary focus. TER was monitored for 30 minutes to establish a baseline resistance (R0) which, for pulmonary endothelium, was typically between 8 to 12×10^3Ω (wells with R0<7×10^3Ω were rejected). As cells adhere and spread out on the microelectrode, TER increases (maximal at confluence), whereas cell retraction, rounding, or loss of adhesion was reflected by a decrease in TER. These measurements provide a highly sensitive biophysical assay that indicates the state of cell shape and focal adhesion. Values from each microelectrode were pooled at discrete time points and plotted versus time as the mean±SE of the mean (Garcia et al., 2001).

The subject of assay [2] is HPMVEC. Nature of the assay: EC proliferation (CellTiter96 MTS). As to conditions: 100 nM HA with or without 100 nM VEGF, or siRNA 48 hours then VEGF; 24 h. Type of assay: cell-based, human. The protocol:
Determination of the role of HMW-HA/CD44 interactions in regulating hyaluronidase activity and angiogenesis in vitro. Human pulmonary microvascular EC (HPMVEC) (Cambrex), grown in EBM-2 complete medium (Cambrex) at 37° C. in a humidified atmosphere of 5% CO2, 95% air, with passages 6-10 used for experimentation was treated with or without 100 nM HMW-HA and/or 100 nM VEGF in the presence or absence of CD44 isoform-specific blocking antibodies (EMD Biosciences), siRNA (scramble, CD44, Hyal-1, Hyal-2, Hyal-3 or Hyal-4) and the potent hyaluronidase inhibitor, L-ascorbic acid 6-hexadecanoate (Botzki et al., 2004) (Sigma). […] Treated EC will either be analyzed for protein expression, hyaluronidase activity or VEGF-induced proliferation, migration or tube formation. […] Cells from the upper and lower chamber were quantitated using the CellTiter96™ MTS assay (Promega, San Luis Obispo, Calif.) and read at 492 nm. % migration was defined as the # of cells in the lower chamber […] the number of cells in both the upper and lower chamber. Each assay was set up in triplicate, repeated at least five times and analyzed statistically by Student's t test (with statistical significance set at P<0.05). […] The in vitro cell proliferation assay was analyzed by measuring increases in cell number using the CellTiter96™ MTS assay (Promega, San Luis Obispo, Calif.) and read at 492 nm. […]

On to hyaluronan [HMW-HA], for which the “change in TER / EC barrier function” value in assay [1] (listed as High MW hyaluronan) is listed as “increased transendothelial monolayer electrical resistance (TER)”. The “EC proliferation (% Proliferation)” value in assay [2] was “inhibited VEGF-induced hyaluronidase expression, EC proliferation (A) and migration (B)”.

Regarding hyaluronan [LMW-HA, reference compound], the “change in TER / EC barrier function” value in assay [1] (listed as low MW hyaluronan) was “induced negative TER changes ultimately resulting in EC barrier disruption”. Also, the “EC proliferation (% Proliferation)” value in assay [2] was “promotes EC proliferation and migration”.

The record behind these values is patent US20100249064A1, “METHODS AND COMPOSITIONS FOR TREATING DISEASES AND CONDITIONS INVOLVING HIGHER MOLECULAR WEIGHT HYALURONAN” (University of Chicago, priority 2007, published 2010).
